Measured values: US20130273180A1, “SYSTEM AND METHOD FOR IMPROVING OUTCOME OF CEREBRAL ISCHEMIA” (priority 2012, published 2013)
Entries after “also recorded” stand apart in the source; their conditions may differ.

Key:
intubated rodents = assay: Cerebral blood flow by cortical laser Doppler during intranasal nitric oxide in intubated rodents; assay type: in vivo
Procedure: (§1) In intubated rodents, the inventors have shown that cerebral blood flow increases by 100% within 60 minutes of intranasal nitric oxide delivery.

[1] = test system: humans (normal volunteers); assay: Tolerability of intranasal nitric oxide delivery in humans (normal volunteers); assay type: in vivo, human
Text: While nitric oxide may be given intranasally and without inhalation into the lungs to intubated, comatose individuals the tolerability of intranasal nitric oxide in awake humans has not previously been investigated. The inventors have tested the effect of nitric oxide in humans (normal volunteers) during intranasal delivery. […] Therefore it can easily be tolerated by awake, non-intubated patients.

[2] = test system: human with focal cerebral ischemia; assay: CT perfusion scanning before and after intranasal nitric oxide in intubated patients with cerebral ischemia; assay type: in vivo
[3] = test system: intubated rodents, carotid artery occlusion model; assay: Carotid artery occlusion model, Speckle laser Doppler, intubated rodents; assay type: in vivo
Procedure: as §1
Increase in cerebral blood flow is attributable to focal intranasal or intra-oral effect of nitric oxide rather than to systemic absorption of the gas. […] The effect on cerebral blood flow during intranasal delivery of nitric oxide with concomitant air inhalation into the lungs is therefore a focal effect on intranasal and intracranial vasculature attributable specifically to nitric oxide. […] In a non-intubated patient, nitric oxide inhalation can be prevented by occluding the nasal cavity anterior or posterior to the site of gas delivery. This is achieved by means of an anterior occlusion device such a rigid member, an expandable member, a compressible member, a sponge, a porous member, a plug, a balloon, foam and/or combinations of the foregoing, which prevent inhalation through the nostrils while maintaining a high concentration of nitric oxide in the nasal cavity. A non-intubated patient may be allowed to inhale air into the lungs during nitric oxide delivery into the nasal cavity by an optional central lumen with the distal orifice beyond the sites of nasal gas delivery and occlusion device.

[4] = Post Rx, one hour of intranasal non-inhaled nitric oxide

[N]=O [nitric oxide]
cerebral blood flow (FIG. 8) (intubated rodents; cortical laser Doppler, during intranasal administration): doubling
cerebral blood flow increase (intubated rodents; within 60 minutes of intranasal delivery, non-inhaled): 100%
sensation during intranasal delivery ([1]; concentrations up to 100 PPM, normal volunteers): does not elicit any sensation
tolerability of gas treatment ([1]; high concentration, delivered intra-nasally and without inhalation): tolerated
Cerebral Blood Flow, Changes in ACA Watershed ([2]; Post Rx): Normalization,
Mean Transit Time, Changes in ACA Watershed ([2]; Post Rx): Normalization
increase in perfusion on L (ACA Watershed) ([2]; Post Rx versus Pre Rx, ischemic left hemisphere): 67% increase in
Cerebral Blood Flow, Left Hemisphere (ischemic) [2, 4]: 52
Cerebral Blood Flow, Right Hemisphere (normal) [2, 4]: 45
Mean Transit Time, Left Hemisphere (ischemic) [2, 4]: 6.0 s
Mean Transit Time, Right Hemisphere (normal) [2, 4]: 6.1 s
cerebral perfusion on CT perfusion scan ([2]; before and after treatment, human with focal cerebral ischemia): improvement; also recorded: augmentation of cerebral perfusion and normalization of regional perfusion abnormalities
cerebral ischemia (FIG. 9) ([3]; Speckle laser Doppler tracing, intubated rodents): reduction
perfusion in the ischemic hemisphere ([3]; during the carotid occlusion and following ligature release): improved
